Assay results: ChEMBL document CHEMBL4321853, “Multitarget CFTR Modulators Endowed with Multiple Beneficial Side Effects for Cystic Fibrosis Patients: Toward a Simplified Therapeutic Approach †” (J Med Chem, 2019)
In brackets after ≈: the same amount, converted by molar mass. Activity calls are given as the source filed them. The rule behind the calls is not given here.

How the values were obtained:
[1] = tested on: Enterovirus A71; test: Antiviral activity against Enterovirus A71 infected in human RD cells assessed as reduction in cytopathic effect incubated for 2 to 3 days by MTS assay; type: functional, organism-based
[2] = Cytotoxicity against human RD cells assessed as reduction in cell viability incubated for 2 to 3 days by MTS assay; type: cell-based
[3] = tested on: Cystic fibrosis transmembrane conductance regulator (Homo sapiens), P13569 [F508del]; test: Corrector activity at CFTR F508del mutant (unknown origin) transfected in human HEK293 membrane cells assessed as increase in CFTR level at 3 uM incubated for 24 hrs by using pHTomato probe based fluorescence inverted microscopic analysis; type: cell-based
Sequence of Cystic fibrosis transmembrane conductance regulator (Homo sapiens), P13569 [F508del] (P13569 as listed by the source): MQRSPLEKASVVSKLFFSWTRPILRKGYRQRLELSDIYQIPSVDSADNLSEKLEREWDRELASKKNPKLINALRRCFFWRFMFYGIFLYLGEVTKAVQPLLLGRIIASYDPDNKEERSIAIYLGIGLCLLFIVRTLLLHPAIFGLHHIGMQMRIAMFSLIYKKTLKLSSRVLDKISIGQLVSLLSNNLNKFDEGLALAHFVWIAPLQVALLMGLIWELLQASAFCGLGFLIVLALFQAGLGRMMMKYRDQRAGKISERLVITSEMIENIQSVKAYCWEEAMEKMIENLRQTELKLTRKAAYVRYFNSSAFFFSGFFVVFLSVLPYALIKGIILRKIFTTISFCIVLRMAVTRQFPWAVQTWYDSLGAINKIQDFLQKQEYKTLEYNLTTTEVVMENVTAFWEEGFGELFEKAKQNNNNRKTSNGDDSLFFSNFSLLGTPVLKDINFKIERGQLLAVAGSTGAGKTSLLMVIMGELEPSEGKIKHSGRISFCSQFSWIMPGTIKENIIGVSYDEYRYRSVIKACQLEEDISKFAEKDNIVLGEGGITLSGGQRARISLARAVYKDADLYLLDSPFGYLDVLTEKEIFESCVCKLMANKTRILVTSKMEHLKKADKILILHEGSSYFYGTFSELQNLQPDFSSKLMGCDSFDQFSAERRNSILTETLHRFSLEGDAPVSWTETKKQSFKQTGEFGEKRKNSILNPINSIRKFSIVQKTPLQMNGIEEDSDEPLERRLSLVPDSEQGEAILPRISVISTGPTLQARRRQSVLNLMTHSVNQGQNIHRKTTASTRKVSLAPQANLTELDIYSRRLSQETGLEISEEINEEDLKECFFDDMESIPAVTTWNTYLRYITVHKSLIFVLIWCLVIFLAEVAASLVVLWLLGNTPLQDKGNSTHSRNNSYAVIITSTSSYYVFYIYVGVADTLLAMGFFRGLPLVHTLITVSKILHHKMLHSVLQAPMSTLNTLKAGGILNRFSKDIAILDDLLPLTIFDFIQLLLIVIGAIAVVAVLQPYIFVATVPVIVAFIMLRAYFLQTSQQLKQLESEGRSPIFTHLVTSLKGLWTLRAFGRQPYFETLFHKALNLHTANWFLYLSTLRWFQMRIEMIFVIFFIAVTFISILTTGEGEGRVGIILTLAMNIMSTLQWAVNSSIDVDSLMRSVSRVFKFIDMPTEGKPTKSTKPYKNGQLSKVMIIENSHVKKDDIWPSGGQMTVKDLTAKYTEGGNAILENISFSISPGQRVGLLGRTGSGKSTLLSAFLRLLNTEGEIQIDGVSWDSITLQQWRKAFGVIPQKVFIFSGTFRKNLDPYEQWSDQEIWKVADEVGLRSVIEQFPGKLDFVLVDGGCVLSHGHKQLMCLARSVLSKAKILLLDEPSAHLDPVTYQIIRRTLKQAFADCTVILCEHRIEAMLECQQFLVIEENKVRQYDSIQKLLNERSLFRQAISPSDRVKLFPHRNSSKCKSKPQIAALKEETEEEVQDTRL

[4] = tested on: Cystic fibrosis transmembrane conductance regulator (Homo sapiens), P13569 [F508del]; test: Corrector activity at CFTR F508del mutant (unknown origin) transfected in human HEK293 membrane cells assessed as increase in CFTR F508del level at 10 uM incubated for 24 hrs by using pHTomato probe based fluorescence inverted microscopic analysis; type: cell-based
[5] = tested on: Cystic fibrosis transmembrane conductance regulator (Homo sapiens), P13569 [F508del]; test: Corrector activity at CFTR F508del mutant (unknown origin) transfected in human HEK293 membrane cells assessed as increase in anion permeability at 3 uM incubated for 24 hrs by using YFP probe based fluorescence inverted microscopic analysis; type: cell-based
[6] = tested on: Coxsackievirus B3; test: Antiviral activity against Human coxsackievirus B3 infected in human RD cells assessed as reduction in cytopathic effect incubated for 2 to 3 days by MTS assay; type: functional, organism-based; conditions: Enterovirus B
[7] = Cytotoxicity against human RD cells infected with Human coxsackievirus B3 assessed as reduction in cell viability incubated for 2 to 3 days by MTS assay; type: cell-based
[8] = tested on: rhinovirus A2; test: Antiviral activity against Human rhinovirus A2 infected in human RD cells assessed as reduction in cytopathic effect incubated for 2 to 3 days by MTS assay; type: functional, organism-based; conditions: Rhinovirus A
[9] = Cytotoxicity against human RD cells infected with Human rhinovirus A2 assessed as reduction in cell viability incubated for 2 to 3 days by MTS assay; type: cell-based
[10] = tested on: rhinovirus B14; test: Antiviral activity against Human rhinovirus B14 infected in human RD cells assessed as reduction in cytopathic effect incubated for 2 to 3 days by MTS assay; type: functional, organism-based; conditions: Rhinovirus B
[11] = Cytotoxicity against human RD cells infected with Human rhinovirus B14 assessed as reduction in cell viability incubated for 2 to 3 days by MTS assay; type: cell-based
[12] = target: Phosphatidylinositol 4-kinase beta (Homo sapiens, UniProt Q9UBF8); test: Inhibition of recombinant human full length His6-tagged PI4KIII beta expressed in Sf9 cells incubated for 0 mins in presence of [gamma-33P ATP] by scintillation counting method
Sequence of Phosphatidylinositol 4-kinase beta (Q9UBF8 whole entry): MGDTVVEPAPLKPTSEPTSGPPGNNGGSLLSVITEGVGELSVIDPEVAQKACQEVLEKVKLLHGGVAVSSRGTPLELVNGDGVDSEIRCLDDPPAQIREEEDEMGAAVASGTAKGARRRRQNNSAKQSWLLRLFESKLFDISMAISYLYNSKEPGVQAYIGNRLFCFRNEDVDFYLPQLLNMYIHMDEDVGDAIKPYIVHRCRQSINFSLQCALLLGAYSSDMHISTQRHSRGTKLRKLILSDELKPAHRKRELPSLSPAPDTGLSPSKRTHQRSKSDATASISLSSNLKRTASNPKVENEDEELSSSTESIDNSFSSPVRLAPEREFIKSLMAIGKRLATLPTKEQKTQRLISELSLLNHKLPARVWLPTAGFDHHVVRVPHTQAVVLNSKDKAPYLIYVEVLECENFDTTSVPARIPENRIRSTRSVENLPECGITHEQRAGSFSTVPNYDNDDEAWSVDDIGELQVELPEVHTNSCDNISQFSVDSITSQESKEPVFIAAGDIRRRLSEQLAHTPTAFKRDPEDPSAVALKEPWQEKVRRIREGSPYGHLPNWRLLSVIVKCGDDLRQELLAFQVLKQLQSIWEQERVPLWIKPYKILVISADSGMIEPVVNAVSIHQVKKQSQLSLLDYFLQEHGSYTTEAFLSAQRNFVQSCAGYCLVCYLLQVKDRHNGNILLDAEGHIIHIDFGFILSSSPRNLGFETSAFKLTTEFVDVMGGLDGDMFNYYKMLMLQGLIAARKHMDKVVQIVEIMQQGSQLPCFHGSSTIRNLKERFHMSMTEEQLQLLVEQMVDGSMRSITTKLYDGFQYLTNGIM

[13] = Aqueous solubility of compound by LC-MS analysis; type: physicochemical; conditions: buffer
[14] = Apparent permeability of compound by PAMPA assay; type: ADME
[15] = Membrane retention of compound by PAMPA assay; type: ADME
[16] = Metabolic stability in human liver microsomes assessed as compound remaining at 50 uM incubated for 1 hr by UV/LC-MS analysis; type: ADME, Microsome; conditions: read-out: Stability
[17] = Stability in human plasma assessed as half life measured upto 24 hrs by UV/LC-MS analysis; type: ADME, cell-free
[18] = target: T1, Albumin (Homo sapiens, UniProt P02768); test: Binding affinity to human serum albumin assessed as dissociation constant incubated for 30 mins by spectrofluorimetry; type: ADME
T1 sequence (P02768 whole entry): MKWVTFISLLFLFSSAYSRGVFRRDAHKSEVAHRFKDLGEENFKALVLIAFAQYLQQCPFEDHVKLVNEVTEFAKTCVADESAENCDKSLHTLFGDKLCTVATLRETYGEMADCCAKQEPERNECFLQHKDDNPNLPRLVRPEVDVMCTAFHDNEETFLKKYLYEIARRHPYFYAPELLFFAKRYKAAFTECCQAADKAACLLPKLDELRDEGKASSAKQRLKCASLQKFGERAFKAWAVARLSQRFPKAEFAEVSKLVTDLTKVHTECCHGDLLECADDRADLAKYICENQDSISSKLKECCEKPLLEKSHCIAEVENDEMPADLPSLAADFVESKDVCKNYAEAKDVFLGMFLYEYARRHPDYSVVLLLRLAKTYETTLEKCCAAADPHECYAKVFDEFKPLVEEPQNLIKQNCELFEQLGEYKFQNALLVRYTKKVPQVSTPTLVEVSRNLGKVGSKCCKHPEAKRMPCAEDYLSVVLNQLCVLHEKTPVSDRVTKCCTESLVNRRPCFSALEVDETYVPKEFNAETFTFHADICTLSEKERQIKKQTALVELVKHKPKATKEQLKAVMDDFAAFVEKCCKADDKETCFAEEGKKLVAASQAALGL

[19] = target: T1, Albumin; test: Binding affinity to human serum albumin assessed as maximum binding at 0.1 to 500 uM incubated for 30 mins by spectrofluorimetry; type: ADME; conditions: isolated protein, 0.5 h
[20] = Selectivity index, ratio of CC50 for human RD cells to EC50 for Enterovirus A71 infected in human RD cells; type: toxicity, cell-based; conditions: read-out: Ratio CC50/EC50
[21] = Acute toxicity in C57BL/6 mouse assessed as effect on motor coordination upto 180 mg/kg, sc observed for 15 days; type: organism-based; conditions: in vivo, 360 h
[22] = Acute toxicity in C57BL/6 mouse assessed as effect on behavior changes upto 180 mg/kg, sc observed for 15 days; type: organism-based; conditions: in vivo, 360 h
[23] = Acute toxicity in C57BL/6 mouse assessed as body weight loss upto 180 mg/kg, sc observed for 15 days; type: organism-based; conditions: in vivo, 360 h
[24] = Toxicity in C57BL/6 mouse assessed as effect on alveolar microstructure upto 180 mg/kg, sc observed after 4 and 72 hrs by hematoxylin and eosin staining based microscopy; type: organism-based; conditions: in vivo
[25] = Toxicity in C57BL/6 mouse assessed as alveolar/interstitial inflammatory infiltrate upto 180 mg/kg, sc observed after 4 and 72 hrs by hematoxylin and eosin staining based microscopy; type: organism-based; conditions: in vivo
[26] = Toxicity in C57BL/6 mouse assessed as hemorrhage in lung upto 180 mg/kg, sc observed after 4 and 72 hrs by hematoxylin and eosin staining based microscopy; type: organism-based; conditions: in vivo
[27] = Toxicity in C57BL/6 mouse assessed as effect on columnar lining cell upto 180 mg/kg, sc observed after 4 and 72 hrs by hematoxylin and eosin staining based microscopy; type: organism-based; conditions: in vivo
[28] = Toxicity in C57BL/6 mouse assessed as effect on distribution of goblet cells upto 180 mg/kg, sc observed after 4 and 72 hrs by hematoxylin and eosin staining based microscopy; type: organism-based; conditions: in vivo
[29] = Toxicity in C57BL/6 mouse assessed as epithelial hyperplasia upto 180 mg/kg, sc observed after 4 and 72 hrs by hematoxylin and eosin staining based microscopy; type: organism-based; conditions: in vivo
[30] = Toxicity in C57BL/6 mouse assessed as inflammation of intestinal submucosa upto 180 mg/kg, sc observed after 4 and 72 hrs by hematoxylin and eosin staining based microscopy; type: organism-based; conditions: in vivo
[31] = Toxicity in C57BL/6 mouse assessed as effect on hepatic labyrinth of hepatocytes upto 180 mg/kg, sc observed after 4 and 72 hrs by hematoxylin and eosin staining based microscopy; type: organism-based; conditions: in vivo
[32] = Enterovirus A, RD, read-out: EC50

Cc1nc(NC(=O)C(C)(C)C)sc1-c1csc(NCCCC(=O)O)n1
EC50 [1, 32]: 7.27 µM | CC50 [2]: 261 µM

CC(=O)c1cccc(Nc2nc(-c3sc(NC(=O)OC(C)(C)C)nc3C)cs2)c1
Activity [3]: Active

Cc1nc(NC(=O)C(C)(C)C)sc1-c1csc(N(CCO)C2CCCCC2)n1
EC50 [1, 32]: 4.96 µM | CC50 [2]: 4.46 µM | Activity [3]: Active | Activity [4]: Active | Activity [5]: Active

CC(=O)Nc1nc(C)c(-c2csc(N(CCO)C3CCCCC3)n2)s1
EC50 [1, 32]: 1.1 µM | CC50 [2]: 16.4 µM | EC50 [6]: 16.1 µM | CC50 [7]: 20.8 µM | EC50 [8]: > 263 µM | CC50 [9]: > 4.51 µM | EC50 [10]: 6.24 µM | CC50 [11]: 4.51 µM

C=CS(=O)(=O)Nc1nc(-c2sc(NC(C)=O)nc2C)cs1
IC50 [12]: Not Active | EC50 [1, 32]: > 290 µM

CC(=O)Nc1nc(C)c(-c2csc(NC(=O)/C=C/C(C)C)n2)s1
EC50 [1, 32]: 107 µM | CC50 [2]: 172 µM

Cc1nc(NC(=O)C(C)(C)C)sc1-c1csc(NCCC(=O)O)n1
EC50 [1, 32]: 6.48 µM | CC50 [2]: > 271 µM

CC(=O)Nc1nc(C)c(-c2csc(NCCO)n2)s1
EC50 [1, 32]: 12.6 µM | CC50 [2]: 333 µM

CC(=O)Nc1nc(C)c(-c2csc(NC3CCCCC3)n2)s1
EC50 [1, 32]: 1.1 µM | CC50 [2]: 25.5 µM

COc1ccc(Cl)cc1Nc1nc(-c2sc(NC(=O)c3ccccc3)nc2C)cs1
solubility [13]: 0.02 µM (≈ 0.00914 µg/mL) | Papp [14]: 8.1 ×10⁻⁶ cm/s | R% [15]: 37.9% | remaining at 1 h, 50 µM [16]: 98% | half-life [17]: 3.61 days | Kd [18]: 11.7 µM | Bmax [19]: 88.82

Cc1nc(NC(=O)C(C)(C)C)sc1-c1csc(NCCO)n1
EC50 [1, 32]: 1.83 µM | CC50 [2]: 361 µM | EC50 [6]: 2.3 µM | CC50 [7]: > 293 µM | EC50 [8]: 5.4 µM | CC50 [9]: 41.2 µM | EC50 [10]: 3.8 µM | CC50 [11]: 41.2 µM | Activity [3]: Active | Activity [4]: Active | Activity [5]: inactive

Cc1nc(NC(=O)OC(C)(C)C)sc1-c1csc(NCCO)n1
EC50 [1, 32]: 11.4 µM | CC50 [2]: > 421 µM

CC(=O)c1cccc(N(CCO)c2nc(-c3sc(NC(=O)C(C)(C)C)nc3C)cs2)c1
EC90 ([1]; Enterovirus A, RD): 5.78 µM | EC50 [1, 32]: < 0.43 µM | CC50 [2]: 28.9 µM | selectivity ratio [20]: > 67.2 | EC50 [6]: 6.6 µM | CC50 [7]: > 218 µM | EC50 [8]: 6.1 µM | CC50 [9]: 16.8 µM | EC50 [10]: > 9.1 µM | CC50 [11]: 16.8 µM | Activity [3]: Active | solubility ([13]; read-out: solubility): 0.1 µM (≈ 0.0459 µg/mL) | R% [15]: < 0.1% | remaining at 1 h, 50 µM [16]: 98% | half-life [17]: 24.2 days | Kd [18]: 18.5 µM | Bmax [19]: 81.73 | Activity [21]: Non-Toxic | Activity [22]: Non-Toxic | Activity [23]: Non-Toxic | Activity [24]: Non-Toxic | Activity [25]: Non-Toxic | Activity [26]: Non-Toxic | Activity [27]: Non-Toxic | Activity [28]: Non-Toxic | Activity [29]: Non-Toxic | Activity [30]: Non-Toxic | Activity [31]: Non-Toxic | Activity [4]: Active | Activity [5]: Active

CC(=O)Nc1nc(C)c(-c2csc(N(CCO)c3cccc(C(C)=O)c3)n2)s1
EC50 [1]: Not Active

CCC(=O)Nc1nc(-c2sc(NC(C)=O)nc2C)cs1
EC50 [1]: Not Active

CC(=O)c1cccc(Nc2nc(-c3sc(NC(=O)c4ccccc4)nc3C)cs2)c1
Activity [3]: Active

C=CC(=O)Nc1nc(-c2sc(NC(C)=O)nc2C)cs1
EC50 [1, 32]: 1.89 µM | CC50 [2]: 6.01 µM

Cc1nc(NC(=O)c2ccccc2)sc1-c1csc(NCCO)n1
EC50 [1]: Not Active

Cc1nc(NC(=O)C(C)(C)C)sc1-c1csc(Nc2cccc(C(=O)O)c2)n1
EC50 [1, 32]: 0.42 µM | CC50 [2]: 32.1 µM | EC50 [6]: 17 µM | CC50 [7]: 111 µM | EC50 [8]: 9.7 µM | CC50 [9]: 36.3 µM | EC50 [10]: 15.3 µM | CC50 [11]: 36.3 µM | Activity [3]: Active | Activity [4]: Active | Activity [5]: Active

CC(=O)Nc1nc(C)c(-c2csc(NC3CCC(C)CC3)n2)s1 (stereo not given)
EC50 [1, 32]: 0.34 µM | CC50 [2]: 10.9 µM

CC(=O)Nc1nc(C)c(-c2csc(N(C)C3CCCCC3)n2)s1
EC50 [1, 32]: 0.88 µM | CC50 [2]: 19.4 µM

Cc1nc(NC(=O)C(C)(C)C)sc1-c1csc(NCC(=O)O)n1
EC50 [1, 32]: 5.31 µM | CC50 [2]: > 282 µM

CC(=O)Nc1nc(C)c(-c2csc(NC(=O)CBr)n2)s1
EC50 [1]: Not Active
